PMC8464984, “AimR Adopts Preexisting Dimer Conformations for Specific Target Recognition in Lysis-Lysogeny Decisions of Bacillus Phage phi3T” (Biomolecules, 2021)

Assays:
[1] = test system: phAimR–target DNA interaction; experiment: Electrophoretic mobility shift assay, phAimR binding to target DNA; type: biochemical, Bacillus phage phi3T; conditions: 5 nM FAM-labelled 41 bp DNA; 0, 0.037, 0.11, 0.33 and 1 M (so in the source) phAimR, peptide 10-fold molar excess; 25 mM Tris-HCl pH 8.0, 150 mM NaCl, room temperature, 10 min; three biological replicates
Procedure: DNA probes were annealed using boiling water with FAM-labeled primers to generate the 41 bp DNA fragment (70262-70302, 5′ […] 3′) from phi3T bacteriophage genome. The labeled probes (5 nM) were incubated with 0, 0.037, 0.11, 0.33 and 1 M phAimR proteins or peptide-bound phAimR complex (peptide is 10-fold molar excess of phAimR) in a buffer containing 25 mM Tris-HCl (pH 8.0), 5 mM MgCl2, 5 mM DTT, 0.1 mg·mL^−1 BSA, 10% glycerol and 150 mM NaCl at room temperature for 10 min. The reactions were resolved on 6% native acrylamide gels (37.5:1 acrylamide:bis-acrylamide) in 0.5× TBE buffer at 100 V for 75 min. Images of the gels were obtained using FLA5100 (Typhoon, Shanghai, China).
Figure S 6. EMSA characterize the interaction between phAimR and target DNA. The phi 3T-derived SAIRGA peptide abolishes the DNA binding ability of phAimR, whereas the SP beta-derived GMPRGA peptide has no effects. Each EMSA experiments was conducted for three biological replicates.
F ig u re S 7. Comparison of cross-correlation function GAD(τ) between apo phAimR ( b l a c k line), in complex with 500 nM SAIRGA peptide (blue line) and 8000 nM target DNA (red line). FCS data was collected forthe N103C dyes -labeled phAimR dimer. […]

[2] = biological target: T1, phAimR dimer (D174C-labelled) (Bacillus phage phi3T, UniProt P0DOE3, C136S/C223S/C267S/C6S/C74S/C99S/D174C); experiment: smFRET titration of phAimR dimer labelled at D174C (Alexa488/Cy5); type: binding; conditions: titration of SAIRGA or target DNA, GMPRGA at 500 nM
T1 construct: 6xHis (N, cleaved yes); made in house; host or cells: Escherichia coli BL21 (DE3)
T1 sequence (P0DOE3 whole entry C6S/C74S/C99S/C136S/D174C/C223S/C267S): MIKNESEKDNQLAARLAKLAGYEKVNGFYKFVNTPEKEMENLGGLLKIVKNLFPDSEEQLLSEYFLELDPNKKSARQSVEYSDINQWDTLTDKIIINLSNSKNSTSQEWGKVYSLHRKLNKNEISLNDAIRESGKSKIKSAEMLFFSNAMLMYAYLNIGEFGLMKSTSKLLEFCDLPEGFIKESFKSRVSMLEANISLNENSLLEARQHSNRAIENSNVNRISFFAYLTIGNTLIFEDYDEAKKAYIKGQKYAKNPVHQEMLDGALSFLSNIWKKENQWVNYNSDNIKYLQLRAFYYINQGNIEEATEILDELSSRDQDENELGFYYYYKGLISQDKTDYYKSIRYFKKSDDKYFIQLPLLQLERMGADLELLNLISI
Procedure: (§1) The cysteine substitutions of phAimR (phAimR^C6S/C74S/C99S/C136S/C223S/C267S/N103C or phAimR^C6S/C74S/ C99S/C136S/C223S/C267S/D174C) were generated with a standard PCR-based strategy. Proteins were prepared in the same way as the wild-type phAimR. Alexa Fluor 488 C5 maleimide (Alexa488, A10254, Thermo Fisher, Shanghai, China) and Cy5 maleimide (Cy5, PA15131, GE Healthcare, Shanghai, China) were used as fluorescence donor and acceptor, respectively. A desalting column (HiPrep 26/10, GE Healthcare, Shanghai, China) was used to exchange the protein buffer into the conjugation buffer containing 20 mM phosphate (pH 7.4) and 100 mM NaCl. The protein fraction was collected in premixed Alexa488 and Cy5 dyes. The conjugation of phAimR was performed with Alexa488 and Cy5 at a molar ratio of 1:4:4. Conjugation reaction was performed for 3 h at room temperature in the dark, and the mixture was then purified using a Source-Q column (GE Healthcare, Shanghai, China). The fractions of double-labeled protein that had absorption at 280 nm, 493 nm and 640 nm were collected for smFRET data collection.
(§2) The laser confocal fluorescence microscope MicroTime 200 (PicoQuant, Berlin, Germany) was used for single-molecule imaging, and a pulsed interleaved excitation (PIE) scheme was used with two SPCM-AQRH detectors (Excelitas, Waltham, MA, USA) for recording fluorescence time traces at two different wavelengths. Two picosecond-pulsed diode laser heads (LDH-P-C-485 and LDH-P-C-640; PicoQuant, Berlin, Germany) were driven by a PDL 828 Sepia II driver (PicoQuant) at a repetition rate of 40 MHz, which allowed interleaved excitations for Alexa488 and Cy5. Each laser was coupled to the inverted microscope IX 73 (Olympus, Beijing, China) through a single-mode fiber, and was reflected by a dichroic mirror through a water-immersion objective (UPLSAPO 60×, N.A. 1.20). The protein sample was loaded onto a hybridization chamber (Thermo Fisher) glued to a glass coverslip (Thermo Fisher, Shanghai, China). The laser confocal point was set to about 50 μm above the coverslip. The excitation power at the back of the objective was about 100 μW for the 485 nm laser and about 35 μW for the 640 nm laser, as estimated with a power meter (PM20-FC; Thorlabs, Shanghai, China). Focused to a 100 μm pinhole, the fluorescence emission from the excited protein molecule was collected with the same objective. The donor and acceptor emissions were separated with a dichroic mirror (T635lpxr; Chroma, Xiamen, China). The donor emission was filtered with a 520/35 BP band pass, and the acceptor emission was filtered with a 690/70 BP band pass, before being focused onto the two SPCM-AQRH detectors.
(§3) The fluorescence outputs were recorded with a TimeHarp 260 PCI board (PicoQuant, Berlin, Germany) built into a PC workstation, and the data were stored in the time-tagged time-resolved module (PicoQuant, Berlin, Germany). The photon counts including fDex/Dem, fDex/Aem and fAex/Aem were obtained by binning the photons in 1 ms bins using SymPhoTime64 software (PicoQuant, Berlin, Germany). […] With all three fluorescence time traces recorded, the signals from the donor-only or acceptor-only protein molecules were filtered out, so as to ensure that an fDex/Aem photon only arises from a doubly labeled protein. […]

[3] = biological target: T2, phAimR dimer (N103C-labelled) (Bacillus phage phi3T, UniProt P0DOE3, C136S/C223S/C267S/C6S/C74S/C99S/N103C); experiment: smFRET titration of phAimR dimer labelled at N103C (Alexa488/Cy5); type: binding; conditions: titration of SAIRGA (20-500 nM) or target DNA (500-8000 nM), GMPRGA at 500 nM
T2 construct: 6xHis (N, cleaved yes); made in house; host or cells: Escherichia coli BL21 (DE3)
T2 sequence (P0DOE3 whole entry C6S/C74S/C99S/N103C/C136S/C223S/C267S): as the sequence (P0DOE3 whole entry C6S/C74S/C99S/C136S/D174C/C223S/C267S) above, with N103C, C174D counted along it
Procedure: as §1, §2, §3

spAimR = conditions: cited from earlier work
phAimR wild type = biological target: T3, phAimR wild type (Bacillus phage phi3T, UniProt P0DOE3 1-378); experiment: EMSA; no peptide; 5 mM MgCl2; EMSA: 25 mM Tris-HCl pH 8.0, 150 mM NaCl, 5 mM MgCl2, 5 mM DTT, 0.1 mg/mL BSA, 10% glycerol, room temperature 10 min, 5 nM probe, protein 0-1 (printed 'M', probably uM); smFRET titration buffer not in the material; conditions: protein: recombinant; tags: N-terminal 6xHis removed with drICE protease; chain copies: 2; label: FAM; blunt
T3 sequence: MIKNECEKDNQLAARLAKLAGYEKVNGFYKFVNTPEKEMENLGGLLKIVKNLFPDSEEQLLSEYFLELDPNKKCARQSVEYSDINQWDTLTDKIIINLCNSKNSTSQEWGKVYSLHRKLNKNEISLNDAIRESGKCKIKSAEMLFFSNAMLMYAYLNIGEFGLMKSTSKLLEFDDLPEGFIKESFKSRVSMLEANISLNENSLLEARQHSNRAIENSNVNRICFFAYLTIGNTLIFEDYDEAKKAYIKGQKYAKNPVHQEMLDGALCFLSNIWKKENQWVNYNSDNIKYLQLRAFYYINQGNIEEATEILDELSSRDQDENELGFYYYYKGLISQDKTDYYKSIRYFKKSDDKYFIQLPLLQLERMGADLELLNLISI

With “GMPRGA [SPbeta arbitrium peptide (GMPRGA), negative control, reference compound]” the “effect on DNA binding ability of phAimR (EMSA)” value [1] was “no effects”, the “effect on smFRET profile / conformational state enriched” value [2] was “no perturbation on the smFRET profile of phAimR” and the “effect on smFRET profile / conformational state enriched” value [3] was “no perturbation on the smFRET profile of phAimR”. The Kd (spAimR) was 4.6 nM.

B1: phi3T target DNA 41 bp, FAM probe (dsDNA)
DNA 1: GAAATGTCCAGAAATTCAAAAATCAAAAAATAAGAACATGG
DNA 2: CCATGTTCTTATTTTTTGATTTTTGAATTTCTGGACATTTC
B1: binds (phAimR wild type).
